Source: patent publication US11285218B2, “Degradation of bromodomain-containing protein 9 (BRD9) by conjugation of BRD9 inhibitors with E3 ligase ligand and methods of use” (Dana-Farber Cancer Institute, Inc., priority 2016, dated 2022)
pIC50: −log10 of the molar value.

Assays:
BRD9 [1] = target: T1, BRD9 (Homo sapiens, UniProt Q9H8M2); assay: BRD9-ligand displacement AlphaScreen; assay type: binding
T1 construct: A construct of human BRD9 covering residues 134-0245 in the pET28PP vector; made in house; host or cells: E. coli BL21 (DE3)
T1 sequence (Q9H8M2 134-245 limits assumed): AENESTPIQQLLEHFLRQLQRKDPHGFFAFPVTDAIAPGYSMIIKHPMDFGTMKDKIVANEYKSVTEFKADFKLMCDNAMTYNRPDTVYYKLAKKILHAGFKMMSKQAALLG
Protocol: BRD9 assays were performed with minimal modifications from the manufacturer's protocol (PerkinElmer, USA). All reagents were diluted in 50 mM HEPES, 150 mM NaCl, 0.1% w/v BSA, 0.01% w/v Tween20, pH 7.5. […] Plates were spun down at 150×g, and 100 nL of DMSO compound stock was added from pre-diluted plates by pin transfer using a Janus Workstation (PerkinElmer, USA). Under low light, a 2× suspension of Ni-coated Acceptor Beads and Streptavidin Donor Beads, was then added at 10 ul/well to a final concentration of 5 μg/ml by EL406 automated liquid handler (Biotek, USA).

ATAD2B = target: T2, ATAD2B (Homo sapiens, UniProt Q9ULI0); assay: BromoScan single-point screen; assay type: binding; conditions: percent of protein captured on solid support vs control
T2 construct: utilizing DNA-tagged bromodomain and immobilized ligand attached to solid support
From the text: (§1) The BromoScan is an assay that measures the engagement of compounds with bromodomain proteins by utilizing DNA-tagged bromodomain and immobilized ligand attached to solid support. In the control test, DNA-tagged bromodomain binds to the ligand and the bromodomain is captured on the solid support. Compounds that compete for the bromodomain binding location on the ligand will prevent the bromodomain from binding, resulting in less protein captured on the solid support.

BAZ^2B = target: T3, BAZ^2B (Homo sapiens, UniProt Q9UIF8); assay: BromoScan single-point screen; assay type: binding; conditions: percent of protein captured on solid support vs control
T3 construct: utilizing DNA-tagged bromodomain and immobilized ligand attached to solid support
From the text: as §1

BRD2(1) = target: T4, BRD2(1) (Homo sapiens, UniProt P25440); assay: BromoScan single-point screen; assay type: binding; conditions: percent of protein captured on solid support vs control
T4 construct: utilizing DNA-tagged bromodomain and immobilized ligand attached to solid support
From the text: as §1

BRD3(1) = target: T5, BRD3(1) (Homo sapiens, UniProt Q15059); assay: BromoScan single-point screen; assay type: binding; conditions: percent of protein captured on solid support vs control
T5 construct: utilizing DNA-tagged bromodomain and immobilized ligand attached to solid support
From the text: as §1

BRD7 = target: T6, BRD7 (Homo sapiens, UniProt Q9NPI1); assay: BromoScan single-point screen; assay type: binding; conditions: percent of protein captured on solid support vs control
T6 construct: utilizing DNA-tagged bromodomain and immobilized ligand attached to solid support
From the text: as §1

BRD9 [2] = target: T7, BRD9 (Homo sapiens, UniProt Q9H8M2); assay: BromoScan single-point screen; assay type: binding; conditions: percent of protein captured on solid support vs control
T7 construct: utilizing DNA-tagged bromodomain and immobilized ligand attached to solid support
From the text: as §1

BRDT(1) = target: T8, BRDT(1) (Homo sapiens, UniProt Q58F21); assay: BromoScan single-point screen; assay type: binding; conditions: percent of protein captured on solid support vs control
T8 construct: utilizing DNA-tagged bromodomain and immobilized ligand attached to solid support
From the text: as §1

BRDT(2) = target: T9, BRDT(2) (Homo sapiens, UniProt Q58F21); assay: BromoScan single-point screen; assay type: binding; conditions: percent of protein captured on solid support vs control
T9 construct: utilizing DNA-tagged bromodomain and immobilized ligand attached to solid support
From the text: as §1

BRPF3 = target: T10, BRPF3 (Homo sapiens, UniProt Q9ULD4); assay: BromoScan single-point screen; assay type: binding; conditions: percent of protein captured on solid support vs control
T10 construct: utilizing DNA-tagged bromodomain and immobilized ligand attached to solid support
From the text: as §1

CECR2 = target: T11, CECR2 (Homo sapiens, UniProt Q9BXF3); assay: BromoScan single-point screen; assay type: binding; conditions: percent of protein captured on solid support vs control
T11 construct: utilizing DNA-tagged bromodomain and immobilized ligand attached to solid support
From the text: as §1

CREBBP = target: T12, CREBBP (Homo sapiens, UniProt Q92793); assay: BromoScan single-point screen; assay type: binding; conditions: percent of protein captured on solid support vs control
T12 construct: utilizing DNA-tagged bromodomain and immobilized ligand attached to solid support
From the text: as §1

FALZ = target: T13, FALZ (Homo sapiens, UniProt Q12830); assay: BromoScan single-point screen; assay type: binding; conditions: percent of protein captured on solid support vs control
T13 construct: utilizing DNA-tagged bromodomain and immobilized ligand attached to solid support
From the text: as §1

GCN5L2 = target: T14, GCN5L2 (Homo sapiens, UniProt Q92830); assay: BromoScan single-point screen; assay type: binding; conditions: percent of protein captured on solid support vs control
T14 construct: utilizing DNA-tagged bromodomain and immobilized ligand attached to solid support
From the text: as §1

PBRM1(2) = target: T15, PBRM1(2) (Homo sapiens, UniProt Q86U86); assay: BromoScan single-point screen; assay type: binding; conditions: percent of protein captured on solid support vs control
T15 construct: utilizing DNA-tagged bromodomain and immobilized ligand attached to solid support
From the text: as §1

PBRM1(5) = target: T16, PBRM1(5) (Homo sapiens, UniProt Q86U86); assay: BromoScan single-point screen; assay type: binding; conditions: percent of protein captured on solid support vs control
T16 construct: utilizing DNA-tagged bromodomain and immobilized ligand attached to solid support
From the text: as §1

PCAF = target: T17, PCAF (Homo sapiens, UniProt Q92831); assay: BromoScan single-point screen; assay type: binding; conditions: percent of protein captured on solid support vs control
T17 construct: utilizing DNA-tagged bromodomain and immobilized ligand attached to solid support
From the text: as §1

SMARCA2 = target: T18, SMARCA2 (Homo sapiens, UniProt P51531); assay: BromoScan single-point screen; assay type: binding; conditions: percent of protein captured on solid support vs control
T18 construct: utilizing DNA-tagged bromodomain and immobilized ligand attached to solid support
From the text: as §1

SMARCA4 = target: T19, SMARCA4 (Homo sapiens, UniProt P51532); assay: BromoScan single-point screen; assay type: binding; conditions: percent of protein captured on solid support vs control
T19 construct: utilizing DNA-tagged bromodomain and immobilized ligand attached to solid support
From the text: as §1

TAF1(2) = target: T20, TAF1(2) (Homo sapiens, UniProt P21675); assay: BromoScan single-point screen; assay type: binding; conditions: percent of protein captured on solid support vs control
T20 construct: utilizing DNA-tagged bromodomain and immobilized ligand attached to solid support
From the text: as §1

[3] = tested on: MM.1S multiple myeloma line; assay: ATPlite viability assay, MM.1S; conditions: 72 hour treatment, in words
Protocol: (§2) 500 cells/well were plated at a volume of 40 μL/well in white tissue culture treated 384 well assay plates (Thermo Scientific) before DMSO compound stock was added from pre-diluted plates by pin transfer using a Janus Workstation (PerkinElmer, USA). […] Assay plates were allowed to equilibrate to RT for 30 min before reconstituted ATPlite 1 Step reagent (Perkin Elmer) was dispensed at 1:1 volume/well by EL406 automated liquid handler (Biotek, USA).

MV411 cell line = assay: ATPlite viability assay, MV4;11; conditions: MV4;11, 72 hours; in words
Protocol: as §2

BRD9 [4] = target: T21, BRD9 (Homo sapiens, UniProt Q9H8M2); assay: BRD9 immunoblot in MM1S CRBN knockout cells; conditions: MM.1S CRBN knockout cell line, 4 hour treatment, indicated doses
T21 sequence (Q9H8M2 1-597): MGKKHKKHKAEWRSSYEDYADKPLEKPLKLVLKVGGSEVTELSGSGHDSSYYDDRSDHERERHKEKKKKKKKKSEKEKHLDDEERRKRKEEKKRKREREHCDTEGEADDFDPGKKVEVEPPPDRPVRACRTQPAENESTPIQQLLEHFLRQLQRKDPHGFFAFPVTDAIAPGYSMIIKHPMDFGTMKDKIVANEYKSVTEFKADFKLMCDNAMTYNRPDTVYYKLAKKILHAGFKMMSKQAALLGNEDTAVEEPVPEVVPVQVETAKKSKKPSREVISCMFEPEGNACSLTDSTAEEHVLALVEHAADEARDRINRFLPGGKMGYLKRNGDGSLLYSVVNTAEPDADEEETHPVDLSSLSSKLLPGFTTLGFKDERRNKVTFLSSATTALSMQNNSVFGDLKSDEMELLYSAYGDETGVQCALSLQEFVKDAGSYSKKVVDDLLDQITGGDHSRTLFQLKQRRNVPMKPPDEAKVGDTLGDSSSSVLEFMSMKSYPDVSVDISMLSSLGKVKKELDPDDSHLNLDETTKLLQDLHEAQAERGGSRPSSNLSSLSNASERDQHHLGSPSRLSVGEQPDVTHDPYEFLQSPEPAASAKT
Protocol: In additional experiments, cells were washed with PBS, before being lysed in RIPA buffer supplemented with 1×HALT™ protease inhibitor cocktail (Thermo Scientific) for 10 min on ice, followed by low-amplitude sonication for 10 seconds at 4° C. […] In soluble material was removed by centrifugation at 20,000×g for 20 min before protein content was quantified by BCA assay (Pierce). […] Blots were imaged using fluorescence-labeled secondary antibodies (LI-COR) on the OdysseyCLxImager (LI-COR).

BRD4(1) = BRD4(1) (Homo sapiens, UniProt O60885); assay: BRD4(1) ligand-displacement AlphaScreen; assay type: binding; parameters: substituting protein and biotin-probe components for BRD4(1) protein at 20 nM final; His tag (inferred from Ni-coated acceptor beads)

T14 sequence (Q92830 728-832 limits assumed): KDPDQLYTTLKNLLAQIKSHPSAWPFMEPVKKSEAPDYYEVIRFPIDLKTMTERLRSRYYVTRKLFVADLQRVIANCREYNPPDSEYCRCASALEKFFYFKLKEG
T17 sequence (Q92831 723-827 limits assumed): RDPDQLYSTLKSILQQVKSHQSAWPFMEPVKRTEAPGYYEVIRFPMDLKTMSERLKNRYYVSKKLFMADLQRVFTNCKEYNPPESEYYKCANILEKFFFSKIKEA
T5 sequence (Q15059 34-140 limits assumed): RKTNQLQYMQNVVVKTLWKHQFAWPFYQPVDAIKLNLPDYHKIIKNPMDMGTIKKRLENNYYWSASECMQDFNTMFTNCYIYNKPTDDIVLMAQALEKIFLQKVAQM
T16 sequence (Q86U86 653-763 limits assumed): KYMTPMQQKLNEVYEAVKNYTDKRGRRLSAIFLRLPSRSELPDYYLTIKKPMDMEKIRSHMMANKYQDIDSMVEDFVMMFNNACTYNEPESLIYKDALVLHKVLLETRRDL
T15 sequence (Q86U86 177-287 limits assumed): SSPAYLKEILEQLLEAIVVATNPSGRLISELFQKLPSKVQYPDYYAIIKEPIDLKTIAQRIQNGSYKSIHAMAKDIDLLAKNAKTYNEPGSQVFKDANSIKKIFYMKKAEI
T4 sequence (P25440 74-180 limits assumed): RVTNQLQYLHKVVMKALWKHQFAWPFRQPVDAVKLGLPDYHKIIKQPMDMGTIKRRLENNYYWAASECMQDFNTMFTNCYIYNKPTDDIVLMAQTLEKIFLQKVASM
T12 sequence (Q92793 1085-1192 limits assumed): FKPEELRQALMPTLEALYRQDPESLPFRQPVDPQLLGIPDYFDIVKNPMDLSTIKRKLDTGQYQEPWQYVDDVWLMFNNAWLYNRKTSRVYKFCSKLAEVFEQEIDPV
T20 sequence (P21675 1519-1628 limits assumed): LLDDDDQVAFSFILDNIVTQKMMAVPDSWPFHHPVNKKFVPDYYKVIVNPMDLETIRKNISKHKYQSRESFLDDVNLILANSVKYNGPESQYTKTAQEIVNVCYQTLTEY
T2 sequence (Q9ULI0 951-1066 limits assumed): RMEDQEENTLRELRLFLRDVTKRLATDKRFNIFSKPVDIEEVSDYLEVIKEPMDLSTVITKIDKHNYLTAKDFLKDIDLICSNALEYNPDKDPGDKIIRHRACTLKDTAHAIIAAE
T3 sequence (Q9UIF8 2060-2164 limits assumed): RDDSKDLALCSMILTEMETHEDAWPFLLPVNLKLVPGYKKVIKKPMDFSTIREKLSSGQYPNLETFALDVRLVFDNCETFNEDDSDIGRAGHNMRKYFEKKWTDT
T10 sequence (Q9ULD4 589-693 limits assumed): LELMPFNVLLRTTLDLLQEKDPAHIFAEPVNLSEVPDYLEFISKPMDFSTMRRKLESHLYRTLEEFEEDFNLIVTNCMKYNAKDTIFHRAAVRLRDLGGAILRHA
T11 sequence (Q9BXF3 434-538 limits assumed): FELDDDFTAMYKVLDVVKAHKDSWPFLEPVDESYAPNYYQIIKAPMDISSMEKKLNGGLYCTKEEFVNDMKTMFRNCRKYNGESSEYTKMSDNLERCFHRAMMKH
T19 sequence (P51532 1453-1564 limits assumed): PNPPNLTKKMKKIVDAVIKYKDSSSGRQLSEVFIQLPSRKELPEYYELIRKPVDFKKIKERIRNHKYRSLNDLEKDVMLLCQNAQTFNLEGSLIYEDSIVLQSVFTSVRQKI
T18 sequence (P51531 1378-1506 limits assumed): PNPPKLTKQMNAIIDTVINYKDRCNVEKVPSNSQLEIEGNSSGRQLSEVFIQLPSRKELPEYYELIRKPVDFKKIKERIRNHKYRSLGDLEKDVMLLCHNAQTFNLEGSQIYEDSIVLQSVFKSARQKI
T6 sequence (Q9NPI1 131-235 limits assumed): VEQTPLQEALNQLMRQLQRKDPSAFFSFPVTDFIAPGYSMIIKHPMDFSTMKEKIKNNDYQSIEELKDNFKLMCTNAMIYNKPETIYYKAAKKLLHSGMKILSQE

COc1cc(-c2cn(C)c(=O)c3cc(C(=N)NC4CCS(=O)(=O)CC4)sc23)ccc1OCC(=O)NCCCCCCCCNc1cccc2c1CN(C1CCC(=O)NC1=O)C2=O (stereo not shown) [Compound I-17]
pIC50 (BRD9 [1]): 7.91 | % Ctrl @ 1 μM (ATAD2B): 60 % Ctrl | % Ctrl @ 1 μM (BAZ^2B): 74 % Ctrl | % Ctrl @ 1 μM (BRD2(1)): 4 % Ctrl | % Ctrl @ 1 μM (BRD3(1)): 5 % Ctrl | % Ctrl @ 1 μM (BRD7): 0 % Ctrl | % Ctrl @ 1 μM (BRD9 [2]): 0.25 % Ctrl | % Ctrl @ 1 μM (BRDT(1)): 18 % Ctrl | % Ctrl @ 1 μM (BRDT(2)): 57 % Ctrl | % Ctrl @ 1 μM (BRPF3): 85 % Ctrl | % Ctrl @ 1 μM (CECR2): 0.15 % Ctrl | % Ctrl @ 1 μM (CREBBP): 10 % Ctrl | % Ctrl @ 1 μM (FALZ): 60 % Ctrl | % Ctrl @ 1 μM (GCN5L2): 62 % Ctrl | % Ctrl @ 1 μM (PBRM1(2)): 68 % Ctrl | % Ctrl @ 1 μM (PBRM1(5)): 71 % Ctrl | % Ctrl @ 1 μM (PCAF): 55 % Ctrl | % Ctrl @ 1 μM (SMARCA2): 68 % Ctrl | % Ctrl @ 1 μM (SMARCA4): 41 % Ctrl | % Ctrl @ 1 μM (TAF1(2)): 19 % Ctrl | efficacy on viability [3]: comparable efficacy | half-maximal anti-proliferative concentration (MV411 cell line): low nanomolar | maximal efficacy on cell proliferation (MV411 cell line): significantly exceeded that of the more selective I-25 | BRD9 degradation (immunoblot) (BRD9 [4]): little to no BRD9 degradation | pIC50 (BRD4(1)): 5.77
